Results reported in patent publication US6495533B1, “Drugs containing phosphoric acid derivatives as the active ingredient” (Ono Pharmaceutical Co., Ltd., priority 1999, dated 2002).

Tested on: TNFα production
Experiment: Measure of TNFα production inhibitory activity (serum TNFα after LPS challenge in mice)
Assay type: in vivo
Conditions: female BALB/c mice, 7 weeks; test compound intravenous; LPS 100 μg/mouse intraperitoneal; blood 90 minutes after LPS; serum TNFα by ELISA; read-out: ED50 (50% effective dose) for inhibition of serum level of TNFα
Experimental: (i) Measure of TNFα Production Inhibitory Activity
Measure of TNFα production inhibitory activity was prepared according to procedures described previously (Kazuo Ohuchi, SEIBUTSUKAGAKUJIKKENKOZA, 12, 707 (1994) Hirokawa, Tokyo). Female mice (BALB/c, 7 weeks) were injected with test compounds via intravenous administration and with LPS (100 μg/mouse) (Bacto W. E. coli 055:B5; DIFCO Lab.) via in traperitoneal administration. At 90 minutes after LPS challenge, blood with heparin was obtained from abdominal aorta, and serum was stored at −80° C. Serum level of TNFα was determined by mouse cytokine ELISA kit (Genzyme). Inhibition and 50% effective dose (ED50) of test compounds were calculated as 100% of the difference of serum level of TNFα between in control and in LPS. ED50 of some compounds produced by the following examples were 0.01-100 mg/kg.

CCCCCCCC(=O)N[C@@H](COP(=O)(O)O)c1ccccc1 [example 8]
ED50: 2.6 mg/kg
